{"source": "patent US20200315232A1", "about": "“Method to Improve Dispersibility of a Material Having Low Solubility in Water” (PepsiCo, Inc., priority 2012, published 2020)", "key": {"[1]": {"settings": "cited from earlier work; for Sweetness potency: commonly accepted potency figures, weight basis"}, "[2]": {"settings": "cited from earlier work"}, "[3]": {"format": "physicochemical", "description": "Traditionally, the beverage industry makes certain carbonated beverages by first making concentrated syrup and then diluting the syrup with water at the time and place of making the beverage. The dilution ratio in such beverages is often 1:5; meaning one part syrup is mixed with five parts water. The beverage often is carbonated at the time of being bottled or otherwise packaged. For any ingredient to be incorporated into such a 1:5 syrup, the solubility of the ingredient in the syrup must be at least six times higher than its desired concentration in the finished beverage. […] It would be advantageous, therefore, to develop improved methods of incorporating rebaudioside D into an aqueous solution."}}, "note": "Residues, ends and D or L forms follow the SMILES beside them.", "data": [{"smiles": "CC1=CC(=O)[N-]S(=O)(=O)O1.[K+]", "note": "[Acesulfame-K]", "values": [{"measurement": "Sweetness potency", "setting": "[1]", "result": 200, "unit": "times as sweet as sugar"}]}, {"smiles": "COC(=O)[C@H](Cc1ccccc1)NC(=O)[C@@H](N)CC(=O)O", "note": "[Aspertame] (H-Asp-Phe-OMe)", "values": [{"measurement": "Sweetness potency", "setting": "[1]", "result": 200, "unit": "times as sweet as sugar"}]}, {"smiles": "C[C@H](CC[C@@H](O[C@@H]1O[C@H](CO[C@@H]2O[C@H](CO)[C@@H](O)[C@H](O)[C@H]2O)[C@@H](O)[C@H](O)[C@H]1O[C@@H]1O[C@H](CO)[C@@H](O)[C@H](O)[C@H]1O)C(C)(C)O)[C@H]1CC[C@@]2(C)[C@@H]3CC=C4[C@@H](CC[C@H](O[C@@H]5O[C@H](CO[C@@H]6O[C@H](CO)[C@@H](O)[C@H](O)[C@H]6O)[C@@H](O)[C@H](O)[C@H]5O)C4(C)C)[C@]3(C)[C@H](O)C[C@]12C", "note": "[Mogroside V]", "values": [{"measurement": "Sweetness potency", "setting": "[1]", "result": "100-300 times as sweet as sugar"}]}, {"smiles": "COc1ccc(CCC(=O)c2c(O)cc(O[C@@H]3O[C@H](CO)[C@@H](O)[C@H](O)[C@H]3O[C@@H]3O[C@@H](C)[C@H](O)[C@@H](O)[C@H]3O)cc2O)cc1O", "note": "[Neohesperidin dihydrochalcone]", "values": [{"measurement": "Sweetness potency", "setting": "[1]", "result": 300, "unit": "times as sweet as sugar"}]}, {"smiles": "COC(=O)[C@H](Cc1ccccc1)NC(=O)[C@H](CC(=O)O)NCCC(C)(C)C", "note": "[Neotame]", "values": [{"measurement": "Sweetness potency", "setting": "[1]", "result": "8,000 times as sweet as sugar"}]}, {"smiles": "C=C1C[C@@]23CC[C@H]4[C@@](C)(CCC[C@@]4(C)C(=O)O[C@@H]4O[C@H](CO)[C@@H](O)[C@H](O)[C@H]4O)[C@@H]2CC[C@]1(O[C@@H]1O[C@H](CO)[C@@H](O)[C@H](O[C@@H]2O[C@H](CO)[C@@H](O)[C@H](O)[C@H]2O)[C@H]1O[C@@H]1O[C@H](CO)[C@@H](O)[C@H](O)[C@H]1O)C3", "note": "[Rebaudioside A, rebaudioside A]", "values": [{"measurement": "Sweetness relative to sucrose", "setting": "[1]; background statement", "result": "approximately 200 times sweeter than sucrose"}, {"measurement": "Sweetness potency", "setting": "[1]", "result": "150-300 times as sweet as sugar"}, {"measurement": "Solubility in aqueous solution", "setting": "[2]; room temperature", "result": "at least 3000 ppm"}, {"measurement": "Water solubility (in words)", "setting": "[2]", "result": "more soluble than stevioside"}]}, {"smiles": "C=C1C[C@@]23CC[C@H]4[C@@](C)(CCC[C@@]4(C)C(=O)O[C@@H]4O[C@H](CO)[C@@H](O)[C@H](O)[C@H]4O[C@@H]4O[C@H](CO)[C@@H](O)[C@H](O)[C@H]4O)[C@@H]2CC[C@]1(O[C@@H]1O[C@H](CO)[C@@H](O)[C@H](O[C@@H]2O[C@H](CO)[C@@H](O)[C@H](O)[C@H]2O)[C@H]1O[C@@H]1O[C@H](CO)[C@@H](O)[C@H](O)[C@H]1O)C3", "note": "[Rebaudioside D, rebaudioside D]", "values": [{"measurement": "Stable solubility in aqueous solution", "setting": "[3]", "result": "no more than 450 ppm"}, {"measurement": "Sweetness potency", "setting": "[1]", "result": "180-200 times as sweet as sugar"}, {"measurement": "Water solubility (in words)", "setting": "[2]", "result": "low"}]}, {"smiles": "O=C1NS(=O)(=O)c2ccccc21", "note": "[Saccharine]", "values": [{"measurement": "Sweetness potency", "setting": "[1]", "result": 300, "unit": "times as sweet as sugar"}]}, {"smiles": "C=C1C[C@@]23CC[C@H]4[C@@](C)(CCC[C@@]4(C)C(=O)O[C@@H]4O[C@H](CO)[C@@H](O)[C@H](O)[C@H]4O)[C@@H]2CC[C@]1(O[C@@H]1O[C@H](CO)[C@@H](O)[C@H](O)[C@H]1O[C@@H]1O[C@H](CO)[C@@H](O)[C@H](O)[C@H]1O)C3", "note": "[Stevioside, stevioside]", "values": [{"measurement": "Sweetness potency", "setting": "[1]", "result": "100-250 times as sweet as sugar"}, {"measurement": "Water solubility (in words)", "setting": "[2]", "result": "only sparingly soluble in water"}]}, {"smiles": "OC[C@H]1O[C@H](O[C@]2(CCl)O[C@H](CCl)[C@@H](O)[C@@H]2O)[C@H](O)[C@@H](O)[C@H]1Cl", "note": "[Sucralose]", "values": [{"measurement": "Sweetness potency", "setting": "[1]", "result": 600, "unit": "times as sweet as sugar"}]}]}
